Measurements published in patent US11142527B2, “Dihydropyrimidine compounds and uses thereof in medicine” (SUNSHINE LAKE PHARMA CO., LTD., priority 2017, dated 2021).

Legend:
[1] = test system: HBV; test: Test of anti HBV activity in vitro (viral DNA by qPCR); assay type: cell-based; conditions: Hepatitis B virus; HepG2.2.15 cells, viral DNA in cell culture supernatant by qPCR; read-out: EC50 values of the compound of the invention on viral replication
Protocol: Test 1: Test Method of Calculating Anti HBV EC50
HBV Cell Line and Culture Conditions
HepG2.2.15 (SELLS, PNAS, 1987 and SELLS, JV, 1988) chromosomes have an integrated complete HBV genome, and stably express viral RNA and viral protein. HepG2.2.15 cells can secrete mature HBV particles, HBsAg and HBeAg, to medium. HepG2.2.15 cells were cultured in DMEM containing 10% fetal bovine serum, 100 U/mL penicillin, 100 U/mL streptomycin, 1% non essential amino acid, 1 mM sodium pyruvate and 300 μg/mL G418.
Viral particles DNA secreted from HepG2.2.15 cells can be quantified by qPCR, and the effect of the compound on viral replication can be detected.
Test of Anti HBV Activity In Vitro
8000 HepG 2.2.15 cells per well were seeded into a 96-well plate, the plate was cultured at 37° C. and 5% CO2 for 3 days till the cells grew to full wells. Old liquid medium can be removed and replaced with new medium (200 μL) on day 0.
Formulating the compound and treating the cells in the experiment of anti virus: the compound was dissolved in DMSO to a concentration of 30 mM, and then the compound solution was diluted with DMSO to a concentration of 800 μM, and then eight dilutions at 4 fold were performed, the highest concentration is 800 μM. The serial diluted compound was added to the above plate at 1 μL per well, the highest final concentration in the experiment is 4 μM (200 fold dilution). TDF (tenofovir dipiroxil fumarate, Selleck, Cat S1400) has a highest concentration of 4 μM as a positive control. 1 μL of DMSO was added in to the […] at a final concentration of 0.5%, TDF was added in to the […] at a final concentration of 1 μM.
Detection of Viral Genomic DNA by aPCR
Primer: HBV-For-202, […]; HBV-Rev-315, […]. Copies of virus can be calculated using a standard curve plotted by using plasmid containing HBV genome and using SYBR Premix Ex Taq II—Takara DRR081S kit and 1 μL cell culture supernatant as a template. EC50 values of the compound on viral replication were calculated by a four parametric nonlinear regression model using Graphpad Prism 5 software to manage concentration—viral copy number.

[2] = Cytotoxicity test with CellTiter Glo; assay type: cell-based; conditions: human, HepG2.2.15 cells, highest concentration 150 μM, read-out: CC50 values of the compounds of the invention
Protocol: Test 2: Cytotoxicity and Selectivity Index
Methods of Testing Cytotoxicity and Selectivity Index
The serial diluted compound was added to a 384 wells plate at 50 μL HepG2.2.15 cell per well (3000 cells per well), the highest final concentration in the experiment is 150 μM (200 fold dilution). The plate was cultured at 37° C. in an incubator with CO2 for 4 days, and cytotoxicity of the compound was detected using CellTiter Glo agent.
The cytotoxicity of the compound was calculated using the following formulate, cytotoxicity (%)=100−(detection value/mean of DMSO control wells values×100) CC50 values were calculated by a four parametric nonlinear regression model using Graphpad Prism 5 software to manage concentration−cytotoxicity (%).

SMILES | EC50 [1] [nM] | CC50 at 4 days [2] [nM]
COC(=O)C1=C(CN2CCN3C(=O)N(c4ccc(Sc5ccc(C(=O)O)cc5)cc4)C[C@@H]3C2)NC(c2nccs2)=N[C@H]1c1ccc(F)cc1Cl [Example 91, 4-((4-((S)-7-(((R)-6-(2-chloro-4-fluorophenyl)-5-(methoxycarbonyl)-2-(thiazol-2-yl)-3,6-dihydropyrimidin-4-yl)methyl)-3-oxohexahydroimidazo[1,5-a]pyrazin-2(3H)-yl)phenyl)thio)benzoic acid] | 37.7 | > 150000
COC(=O)C1=C(CN2CCN3C(=O)N(c4nc(-c5ccc(CCC(=O)O)cc5)cs4)C[C@@H]3C2)NC(c2nccs2)=N[C@H]1c1ccc(F)cc1Cl [Example 135, 3-(4-(2-((S)-7-(((R)-6-(2-chloro-4-fluorophenyl)-5-(methoxycarbonyl)-2-(thiazol-2-yl)-3,6-dihydropyrimidin-4-yl)methyl)-3-oxohexahydroimidazo[1,5-a]pyrazin-2(3H)-yl)thiazol-4-yl)phenyl)propanoic acid] | 6.5 | > 150000
COC(=O)C1=C(CN2CCN3C(=O)N(c4ccc(-c5cc(C(=O)O)ccc5F)cc4)C[C@@H]3C2)NC(c2nccs2)=N[C@H]1c1ccc(F)cc1Cl [Example 116] | 19.9 | > 150000
COCC(C)(C)NC(=O)c1ccc(Oc2ccc(N3C[C@@H]4CN(CC5=C(C(=O)OC)[C@H](c6ccc(F)cc6Cl)N=C(c6nccs6)N5)CCN4C3=O)cc2)cc1 [Example 70, (R)-methyl 4-(2-chloro-4-fluorophenyl)-6-(((S)-2-(4-(4-((1-methoxy-2-methylprop-2-yl)carbamoyl)phenoxy)phenyl)-3-oxohexahydroimidazo[1,5-a]pyrazin-7(1H)-yl)methyl)-2-(thiazol-2-yl)-1,4-dihydropyrimidine-5-carboxylate] | 15.9 | > 150000
COC(=O)C1=C(CN2CCN3C(=O)N(c4ccc(Oc5ccc(C(=O)N(CCO)Cc6ccccc6)cc5)cc4)C[C@@H]3C2)NC(c2nccs2)=N[C@H]1c1ccc(F)cc1Cl [Example 63, (R)-methyl 6-(((S)-2-(4-(4-(benzyl(2-hydroxyethyl)carbamoyl)phenoxy)phenyl)-3-oxohexahydroimidazo[1,5-a]pyrazin-7(1H)-yl)methyl)-4-(2-chloro-4-fluorophenyl)-2-(thiazol-2-yl)-1,4-dihydropyrimidine-5-carboxylate] | 27.6 | > 150000
COC(=O)C1=C(CN2CCN3C(=O)N(c4ccc(Oc5ccc(C(=O)NCc6ccccc6Cl)cc5)cc4)C[C@@H]3C2)NC(c2nccs2)=N[C@H]1c1ccc(F)cc1Cl [Example 62, (R)-methyl 4-(2-chloro-4-fluorophenyl)-6-(((S)-2-(4-(4-((2-chlorobenzyl)carbamoyl)phenoxy)phenyl)-3-oxohexahydroimidazo[1,5-a]pyrazin-7(1H)-yl)methyl)-2-(thiazol-2-yl)-1,4-dihydropyrimidine-5-carboxylate] | – | > 150000
COC(=O)C1=C(CN2CCN3C(=O)N(c4ccc(-c5ccc(CCC(=O)O)cc5)cc4)C[C@@H]3C2)NC(c2nccs2)=N[C@H]1c1ccc(F)cc1Cl [Example 126, 3-(4′-((S)-7-(((R)-6-(2-chloro-4-fluorophenyl)-5-(methoxycarbonyl)-2-(thiazol-2-yl)-3,6-dihydropyrimidin-4-yl)methyl)-3-oxohexahydroimidazo[1,5-a]pyrazin-2(3H)-yl)-[1,1′-biphenyl]-4-yl)propanoic acid] | 6.7 | > 150000
COC(=O)C1=C(CN2CCN3C(=O)N(c4nc(-c5cc(F)cc(C(=O)O)c5)cs4)C[C@@H]3C2)NC(c2nccs2)=N[C@H]1c1ccc(F)cc1Cl [Example 138, 3-(2-((S)-7-(((R)-6-(2-chloro-4-fluorophenyl)-5-(methoxycarbonyl)-2-(thiazol-2-yl)-3,6-dihydropyrimidin-4-yl)methyl)-3-oxohexahydroimidazo[1,5-a]pyrazin-2(3H)-yl)thiazol-4-yl)-5-fluorobenzoic acid] | 34 | > 150000
COC(=O)C1=C(CN2CCN3C(=O)N(CC#Cc4ccc(C(=O)N(C)C)cc4)C[C@@H]3C2)NC(c2nccs2)=N[C@H]1c1ccc(F)cc1Cl [Example 42, (R)-methyl 4-(2-chloro-4-fluorophenyl)-6-(((S)-2-(3-(4-(dimethylcarbamoyl)phenyl)prop-2-yn-1-yl)-3-oxohexahydroimidazo[1,5-a]pyrazin-7(1H)-yl)methyl)-2-(thiazol-2-yl)-1,4-dihydropyrimidine-5-carboxylate] | 8 | > 150000
COC(=O)C1=C(CN2CCN3C(=O)N(c4cncc(Oc5ccc(C(=O)O)cc5F)c4)C[C@@H]3C2)NC(c2nccs2)=N[C@H]1c1ccc(F)cc1Cl [Example 81, 4-((5-((S)-7-(((R)-6-(2-chloro-4-fluorophenyl)-5-(methoxycarbonyl)-2-(thiazol-2-yl)-3,6-dihydropyrimidin-4-yl)methyl)-3-oxohexahydroimidazo[1,5-a]pyrazin-2(3H)-yl)pyridin-3-yl)oxy)-3-fluorobenzoic acid] | – | > 150000
COC(=O)C1=C(CN2CCN3C(=O)N(c4cc(F)cc(OC5CCC(C(=O)O)CC5)c4)C[C@@H]3C2)NC(c2nccs2)=N[C@H]1c1ccc(F)cc1Cl (stereo partly drawn) [Example 23, 4-(3-((S)-7-(((R)-6-(2-chloro-4-fluorophenyl)-5-(methoxycarbonyl)-2-(thiazol-2-yl)-3,6-dihydropyrimidin-4-yl)methyl)-3-oxohexahydroimidazo[1,5-a]pyrazin-2(3H)-yl)-5-fluorophenoxy)cyclohexane carboxylic acid] | 7 | > 150000
COC(=O)C1=C(CN2CCN3C(=O)N(c4ccc(Oc5ccc(C(=O)N6CCOC[C@@H]6CCC(=O)O)cc5)cc4)C[C@@H]3C2)NC(c2nccs2)=N[C@H]1c1ccc(F)cc1Cl [Example 73, 3-((S)-4-(4-(4-((S)-7-(((R)-6-(2-chloro-4-fluorophenyl)-5-(methoxycarbonyl)-2-(thiazol-2-yl)-3,6-dihydropyrimidin-4-yl)methyl)-3-oxohexahydroimidazo[1,5-a]pyrazin-2(3H)-yl)phenoxy)benzoyl)morpholin-3-yl)propanoic acid] | – | > 150000
COC(=O)C1=C(CN2CCN3C(=O)N(c4ccc(Oc5ccc(C(=O)NCC(C)(C)C(=O)O)cc5)cc4)C[C@@H]3C2)NC(c2nccs2)=N[C@H]1c1ccc(F)cc1Cl [Example 75, 3-(4-(4-((S)-7-(((R)-6-(2-chloro-4-fluorophenyl)-5-(methoxycarbonyl)-2-(thiazol-2-yl)-3,6-dihydropyrimidin-4-yl)methyl)-3-oxohexahydroimidazo[1,5-a]pyrazin-2(3H)-yl)phenoxy)benzamido)-2,2-dimethylpropanoic acid] | – | > 150000
COC(=O)C1=C(CN2CCN3C(=O)N(c4ccc(-c5ccc(C(=O)O)cc5F)cc4)C[C@@H]3C2)NC(c2nccs2)=N[C@H]1c1ccc(F)cc1Cl [Example 115, 4′-((S)-7-(((R)-6-(2-chloro-4-fluorophenyl)-5-(methoxycarbonyl)-2-(thiazol-2-yl)-3,6-dihydropyrimidin-4-yl)methyl)-3-oxohexahydroimidazo[1,5-a]pyrazin-2(3H)-yl)-2-fluoro-[1,1′-biphenyl]-4-carboxylic acid] | 17.2 | –
COC(=O)C1=C(CN2CCN3C(=O)N(c4ccc(Oc5ccc(OCC(F)(F)F)cc5)cc4)C[C@@H]3C2)NC(c2nccs2)=N[C@H]1c1ccc(F)cc1Cl [Example 104, (R)-methyl 4-(2-chloro-4-fluorophenyl)-6-(((S)-3-oxo-2-(4-(4-(2,2,2-trifluoroethoxy)phenoxy)phenyl)hexahydroimidazo[1,5-a]pyrazin-7(1H)-yl)methyl)-2-(thiazol-2-yl)-1,4-dihydropyrimidine-5-carboxylate] | – | > 150000
COC(=O)C1=C(CN2CCN3C(=O)N(c4ccc(C5(C(=O)O)CCC5)cc4)C[C@@H]3C2)NC(c2nccs2)=N[C@H]1c1ccc(F)cc1Cl [Example 28, 1-(4-((S)-7-(((R)-6-(2-chloro-4-fluorophenyl)-5-(methoxycarbonyl)-2-(thiazol-2-yl)-3,6-dihydropyrimidin-4-yl)methyl)-3-oxohexahydroimidazo[1,5-a]pyrazin-2(3H)-yl)phenyl)cyclobutane carboxylic acid] | 4 | –
